Results: patent US20240208898A1, “ENAMINE N-OXIDES: SYNTHESIS AND APPLICATION TO HYPOXIA-RESPONSIVE PRODRUGS AND IMAGING AGENTS” (DANA-FARBER CANCER INSTITUTE, INC., priority 2021, published 2024)
Each block holds one compound with its values, some of them ahead of it.

What was measured:
[1] = Assay evaluating the importance of enamine N-oxide unsaturation; format: physicochemical; settings: reductants B2(OH)4 or Fe^2+, 100 mM HEPES, pH 7.4, HPLC
Experimental: Enamine N-oxide 6 or alkyl N-oxide S4 (50 μL, 4 mM in water; 200 μM final concentration) were added to a HEPES buffered solution (750 μL, 100 mM HEPES, pH 7.4; 1 mL final volume) in an HPLC vial. N-oxide reduction was initiated by adding a solution of tetrahydroxydiboron (200 μL, 200 nmol, 1 equiv, 1 mM in ethanol) and the resulting solution was incubated at room temperature. After 1 hour, solutions were analyzed by HPLC (C18 column, 4.6×50 mm, 2.4 μm particle size, 1 mL/minute flow rate, eluent: gradient H2O+0.1% TFA (1 minute), gradient 0→100% MeCN/H2O+0.1% TFA (4 minutes), MeCN+0.1% TFA (1 minute)). p-Cresol was quantified by its absorbance at 280 nm.

[2] = Degradation studies of isolated enamine N-oxides in solvent at 60° C.; format: physicochemical; settings: 6 hours, NMR
Experimental: Degradation studies were performed using isolated enamine N-oxides (5:5′, 15:1). An LC-MS vial was charged with a 0.1 M solution of enamine N-oxides (23.9 mg, 100 μmol) in the reaction solvent of interest and heated to 60° C. for 6 hours. After heating, the reaction mixture was concentrated under reduced pressure and dissolved in CDCl3. The amounts of enamine N-oxides (5 and 5′) and p-fluorophenol (4) were determined by ^1H and ^19F-NMR integrations using benzotrifluoride as an internal standard. Regioisomer ratios in different solvents were determined by ^1H-NMR integrations of vicinal versus geminal olefinic protons.

[3] = Assay evaluating the stability of enamine N-oxides to metal cations; format: physicochemical; settings: 200 μM, 2 mM cations, 1 h, room temperature, 100 mM HEPES pH 7.4; Fe^2+ with 10 mM sodium dithionite
Experimental: Enamine N-oxide 3a (50 μL, 4 mM in water; 200 μM final concentration) was added to a HEPES buffered solution (946 μL, 100 mM HEPES, pH 7.4; 1 mL final volume) in an HPLC vial. A solution of metal cation (4 μL, 500 mM in water, 2 mM final concentration) was then added and the solution was incubated at room temperature. After 1 hour, solutions were analyzed by HPLC (C18 column, 4.6×50 mm, 2.4 μm particle size, 1 mL/minute flow rate, eluent: gradient H2O+0.1% TFA (1 minute), gradient 0→100% MeCN/H2O+0.1% TFA (4 minutes), MeCN+0.1% TFA (1 minute)). p-Cresol was quantified by its absorbance of 280 nm.
The following cations were assayed using this procedure: sodium chloride, potassium chloride, calcium chloride, magnesium chloride, manganese (II) chloride, cobalt (II) sulfate, zinc (II) chloride, nickel (II) acetate, and iron (III) chloride.
For iron (II) sulfate, a solution of iron (II) sulfate (2 μL, 1 M in 1 N HCl; 2 mM final concentration) was added followed by a solution of sodium dithionite (10 μL, 1 M in 1 N NaOH; 10 mM final concentration).

[4] = Thermal decomposition of enamine N-oxide (Cope elimination); format: physicochemical; settings: 60° C. in CDCl3 for 1 h
Experimental: A 1-dram vial was charged with enamine N-oxide S1 (90.0 mg, 179 μmol, 1 equiv) and dissolved in chloroform-d (1.79 mL). The reaction vial was flushed with nitrogen, sealed with a cap and Parafilm, and heated to 60° C. After 1 hour, the oil bath was removed and the reaction was cooled to room temperature. The reaction mixture was purified by flash column chromatography on silica gel (eluent: 5% CMA in chloroform). Fractions containing the desired compound were combined and the solvent was removed under reduced pressure at 0° C. with a rotary evaporator to provide the product S2 (14.9 mg, 34%) as an off-white solid. ^1H NMR (500 MHz, CDCl3, 25° C.): δ 7.94 (d, J=8.3, 1H), 7.86 (d, J=7.3, 1H), 7.79 (d, J=7.9, 1H), 7.55-7.35 (m, 4H), 7.31 (d, J=9.6, 1H), 6.16 (dd, J=36.1, 9.7, 1H), 4.08 (d, J=14.0, 2H), 3.65 (s, 3H). ^13C NMR (126 MHz, CDCl3, 25° C.): δ 165.7 (d, J=277.1), 134.2, 132.0, 130.7 (d, J=3.0), 130.4 (d, J=3.2), 129.1, 128.6, 128.1, 126.8, 126.1, 125.7, 123.6, 100.2 (d, J=8.1), 52.6, 36.5 (d, J=26.2). ^19F NMR (471 MHz, CDCl3, 25° C.): δ −89.5. FTIR (thin film) cm^−1: 2922 (m), 2855 (w), 1662 (m), 1569 (w), 1408 (m), 1140 (s), 779 (s). HRMS (ESI) (m/z): calc'd for C15H15FNO [M+H]^+: 244.1132, found: 244.1129. TLC (5% CMA/chloroform), Rf: 0.30 (UV, KMnO4).
A 1-dram vial was charged with enamine N-oxide S1 (90.0 mg, 179 μmol, 1 equiv) and dissolved in chloroform-d (1.79 mL). […]

[5] = Nucleophilic trapping experiment with benzyl mercaptan; format: physicochemical; settings: benzyl mercaptan (10 equiv), room temperature
Experimental: A round-bottom flask was charged with (E)-N,N-diethyl-4-phenyl-3-(p-tolyloxy)but-1-en-1-amine oxide (S6, 26.0 mg, 79.8 μmol, 1 equiv) and dissolved with chloroform-d (773 μL) at room temperature. Benzylmercaptan (93.7 μL, 798 μmol, 10.0 equiv) was then added via syringe. After 5 minutes, analysis by TLC indicated no reduction by benzylmercaptan. Solid bis(pinacolato)diboron (20.3 mg, 79.8 μmol, 1.00 equiv) was then added in one portion at room temperature. After 15 minutes, the reaction was directly loaded onto a silica gel column. The reaction mixture was purified by flash column chromatography (eluent: 100% chloroform) to provide aldehyde S7 (20.2 mg, 94%) as an off-white solid. ^1H NMR (500 MHz, CDCl3, 25° C.): δ 9.51 (dd, J=2.5, 1.4 Hz, 1H), 7.33-7.18 (m, 8H), 7.14-7.08 (m, 2H), 3.68 (q, J=13.4, 10.4 Hz, 2H), 3.20 (tdd, J=8.1, 6.5, 5.6 Hz, 1H), 2.97 (dd, J=13.7, 6.4 Hz, 1H), 2.78 (dd, J=13.8, 8.2 Hz, 1H), 2.60-2.40 (m, 2H). ^13C NMR (126 MHz, CDCl3, 25° C.): δ 200.7, 138.6, 138.1, 129.6, 129.2, 128.8, 128.7, 127.4, 127.0, 47.8, 42.3, 40.5, 36.1. FTIR (thin film) cm^−1: 3026 (w), 2922 (w), 1722 (s), 1494 (m), 1453 (m), 700 (s). HRMS (ESI) (m/z): calc'd for C17H19OS [M+H]^+: 271.1151, found: 271.1149. TLC (100% chloroform), Rf: 0.45 (UV, KMnO4).

[6] = test system: human liver microsomes; assay: In vitro microsomal reduction assay; format: in vitro ADME; settings: hypoxic vs normoxic, 2-nitroaniline released, absorbance at λ=412 nm
Experimental: All reactions were prepared and carried out in a semi-micro spectrophotometer quartz cell fitted with a septum screw cap (Starna Cells). For anaerobic conditions, all solutions were degassed for 30 minutes by sparging with nitrogen. Cells were maintained under anaerobic conditions using nitrogen lines connected to a nitrogen gas manifold or using a nitrogen-filled balloon. In experiments requiring normoxic conditions, the quartz cells were left open to ambient atmosphere. Unless otherwise stated, reactions were prepared as follows. A solution of human liver microsomes (10 μL, 20 mg/mL in phosphate buffer, pH 7.4, Corning; 200 μg/mL final concentration) followed by a solution of NADPH (16.7 μL, 60 mM in 10 mM NaOH solution; 1 mM final concentration) was added to a phosphate buffered solution ([…], 100 mM phosphate buffer, pH 7.4; 1 mL final volume) at room temperature. After 1 hour, reactions were initiated by the addition of a stock solution of the 2-nitroaniline enamine N-oxide probes 32a-f (50 μL, 4 mM in phosphate buffer, pH 7.4; 200 μM final concentration). […]
Heat-inactivated microsomes were prepared for control experiments by heating a solution of human liver microsomes (20 mg/mL in phosphate buffer, pH 7.4, Corning) to 45° C. for 30 minutes. […]

[7] = Enamine N-oxides with reducing agents; format: physicochemical; settings: probe 200 μM
Experimental: A stock solution of 2-nitroaniline enamine N-oxide probe 32c (50 μL, 4 mM in 100 mM phosphate buffer, pH 7.4; 200 μM final concentration) was added to a phosphate buffered solution (850 μL, 100 mM phosphate, pH 7.4; 1 mL final volume) in a semi-micro quartz cell open to ambient atmosphere. A solution of glutathione (100 μL, 50 mM in phosphate buffer, pH 7.4; 5 mM final concentration) or cysteine (100 μL, 50 mM in phosphate buffer, pH 7.4; 5 mM final concentration) or tetrahydroxydiboron (100 μL, […] in methanol; 200 μM final concentration) were added to the solution. Reactions with glutathione or cysteine were incubated at 37° C. The reaction with tetrahydroxydiboron was carried out at room temperature. Wavelength scans (400-550 nm) were recorded at several time points (0, 1, and 2 hours).

- release of p-cresol upon reduction [1]: did not lead to the release of p-cresol
Compound: CC[N+]([O-])(CC)CCCOc1ccc(C)cc1 [alkyl N-oxide S4, N,N-diethyl-3-(p-tolyloxy)propan-1-amine oxide]

- Yield (%) 4 (p-fluorophenol formed) ([2]; CHCl3, 0.1 M): 29%
- Yield (%) 5 + 5′ (enamine N-oxide remaining) ([2]; CHCl3, 0.1 M): 45%
- Yield (%) 4 (p-fluorophenol formed) ([2]; TFE, 0.1 M): <1%
- Yield (%) 5 + 5′ (enamine N-oxide remaining) ([2]; TFE, 0.1 M): 96%
Compound: CC[N+]([O-])(/C=C/COc1ccc(F)cc1)CC [enamine N-oxide 5, (E)-N,N-diethyl-3-(4-fluorophenoxy)prop-1-en-1-amine oxide]

- release of p-cresol upon reduction [1]: led to the release of p-cresol
Compound: CC[N+]([O-])(/C=C/COc1ccc(C)cc1)CC [enamine N-oxide 6]
- stability in the presence of different metal cations [3]: Only Fe^2+ was capable of reducing enamine N-oxides

Compound: C[N+]([O-])(/C=C/C(F)(F)Cc1cccc2ccccc12)CCCCC(=O)NCc1ccc2ccccc2c1 (stereo not shown) [enamine N-oxide S1, (E)-N-(3,3-difluoro-4-(naphthalen-1-yl)but-1-en-1-yl)-N-methyl-5-((naphthalen-2-ylmethyl)amino)-5-oxopentan-1-amine oxide]
- thermal decomposition [4]: two new products were isolated in addition to the starting material

- reduction in the absence of diboron [5]: not reduced in the absence of diboron
Compound: CC[N+]([O-])(/C=C/C(Cc1ccccc1)Oc1ccc(C)cc1)CC (stereo not shown) [enamine N-oxide S6, (E)-N,N-diethyl-4-phenyl-3-(p-tolyloxy)but-1-en-1-amine oxide]

- reactivity toward cysteine ([7]; 5 mM cysteine, phosphate buffer pH 7.4, 37° C., over 2 h): unreactive
- reactivity toward glutathione ([7]; 5 mM glutathione (GSH), phosphate buffer pH 7.4, 37° C., over 2 h): unreactive
Compound: CC[N+]([O-])(/C=C/COC(=O)Nc1ccccc1[N+](=O)[O-])CC [probe 32c, (E)-N,N-diethyl-3-(((2-nitrophenyl)carbamoyl)oxy)prop-1-en-1-amine oxide]
- enhancement in the initial rate of reduction under hypoxic conditions [6]: 21 fold
- time until probe is fully reduced by diboron ([7]; B2(OH)4 1 equiv 200 μM, room temperature): ≤ 10 min
